Type in all cases: functional
The subject of experiment [1] is Staphylococcus aureus. The experiment is described as follows: Antistaphylococcal activity against methicillin-sensitive Staphylococcus aureus.
Experiment [2] concerns Staphylococcus aureus. In words: Antistaphylococcal activity against vancomycin-resistant Staphylococcus aureus 512.
The test system of experiment [3] is Staphylococcus aureus. The experiment is described as follows: Antistaphylococcal activity against quinolone-susceptible methicillin-resistant Staphylococcus aureus.
For experiment [4], the system named is Staphylococcus aureus. In words: Antistaphylococcal activity against vancomycin-intermediate Staphylococcus aureus 508.
Experiment [5] relates to Staphylococcus aureus. The experiment is described as follows: Antistaphylococcal activity against vancomycin-intermediate Staphylococcus aureus.
The test system of experiment [6] is Staphylococcus aureus. In words: Antistaphylococcal activity against vancomycin-resistant Staphylococcus aureus 510.
Experiment [7] concerns Staphylococcus aureus. In words: Antistaphylococcal activity against quinolone-resistant Staphylococcus aureus 241.
In experiment [8] the test system is Staphylococcus aureus. The experiment is described as follows: Antistaphylococcal activity against vancomycin-intermediate Staphylococcus aureus 555.
For experiment [9], the system named is Staphylococcus aureus. The experiment is described as follows: Antistaphylococcal activity against vancomycin-intermediate Staphylococcus aureus 507.
Experiment [10] concerns Staphylococcus aureus. In words: Antistaphylococcal activity against quinolone-resistant Staphylococcus aureus 508.
In experiment [11] the test system is Staphylococcus aureus. In words: Antistaphylococcal activity against quinolone and methicillin-resistant Staphylococcus aureus.
Experiment [12] has as its system Staphylococcus aureus. The experiment is described as follows: Antistaphylococcal activity against vancomycin-resistant Staphylococcus aureus 509.
The test system of experiment [13] is Staphylococcus aureus. The experiment is described as follows: Antistaphylococcal activity against vancomycin-intermediate Staphylococcus aureus 506.
Experiment [14] concerns Staphylococcus aureus. In words: Antistaphylococcal activity against vancomycin-resistant Staphylococcus aureus.
The test system of experiment [15] is Staphylococcus aureus. In words: Antistaphylococcal activity against vancomycin-intermediate Staphylococcus aureus 504.
The test system of experiment [16] is Staphylococcus aureus. The experiment is described as follows: Antistaphylococcal activity against quinolone-resistant Staphylococcus aureus 242.
In experiment [17] the test system is Staphylococcus aureus. The experiment is described as follows: Antistaphylococcal activity against quinolone-resistant Staphylococcus aureus 261.
Experiment [18] has as its system Staphylococcus aureus. In words: Antistaphylococcal activity against vancomycin-intermediate Staphylococcus aureus 505.

Values after ≈ are worked out from the molar mass of the structure shown.

As usually defined, the MIC is the lowest concentration that inhibits growth of the organism.

`COc1c(N2CC[C@@H](C3(N)CC3)C2)ccc2c(=O)c(C(=O)O)cn([C@@H]3C[C@@H]3F)c12`: the minimal inhibitory concentration (MIC) against Staphylococcus aureus [1] was determined as 0.004 µg/mL (≈ 0.00996 µM); against Staphylococcus aureus [2] it was 0.06 µg/mL (≈ 0.149 µM); with Staphylococcus aureus [3] it was 0.008 µg/mL (≈ 0.0199 µM); in the experiment on Staphylococcus aureus [4], 0.004 µg/mL (≈ 0.00996 µM); against Staphylococcus aureus [5] it was 0.016 µg/mL (≈ 0.0399 µM); in the experiment with Staphylococcus aureus [6], 0.06 µg/mL (≈ 0.149 µM). The MIC turned out to be 0.004 µg/mL (≈ 0.00996 µM) against Staphylococcus aureus [7]; 0.06 µg/mL (≈ 0.149 µM) in the experiment with Staphylococcus aureus [8]; 0.06 µg/mL (≈ 0.149 µM) in the experiment with Staphylococcus aureus [9]; 0.004 µg/mL (≈ 0.00996 µM) against Staphylococcus aureus [10]; 0.06 µg/mL (≈ 0.149 µM) against Staphylococcus aureus [11]; 0.06 µg/mL (≈ 0.149 µM) against Staphylococcus aureus [12]. For the same compound, the MIC stood at 0.06 µg/mL (≈ 0.149 µM) with Staphylococcus aureus [13]; 0.125 µg/mL (≈ 0.311 µM) against Staphylococcus aureus [14]; 0.06 µg/mL (≈ 0.149 µM) in the experiment on Staphylococcus aureus [15]; 0.004 µg/mL (≈ 0.00996 µM) against Staphylococcus aureus [16]; 0.004 µg/mL (≈ 0.00996 µM) in the experiment on Staphylococcus aureus [17]; 0.004 µg/mL (≈ 0.00996 µM) against Staphylococcus aureus [18].
`C[C@H]1COc2c(N3CCN(C)CC3)c(F)cc3c(=O)c(C(=O)O)cn1c23.C[C@H]1COc2c(N3CCN(C)CC3)c(F)cc3c(=O)c(C(=O)O)cn1c23.O` [LEVOFLOXACIN] yielded an MIC with Staphylococcus aureus [11] of at least 4 µg/mL.
Take `CN[C@H](CC(C)C)C(=O)N[C@H]1C(=O)N[C@@H](CC(N)=O)C(=O)N[C@H]2C(=O)N[C@H]3C(=O)N[C@H](C(=O)N[C@H](C(=O)O)c4cc(O)cc(O)c4-c4cc3ccc4O)[C@H](O)c3ccc(c(Cl)c3)Oc3cc2cc(c3O[C@@H]2O[C@H](CO)[C@@H](O)[C@H](O)[C@H]2O[C@H]2C[C@](C)(N)[C@H](O)[C@H](C)O2)Oc2ccc(cc2Cl)[C@H]1O` [VANCOMYCIN]: the minimal inhibitory concentration (MIC) in the experiment with Staphylococcus aureus [6] was found to be 0.05 µg/mL (≈ 0.0345 µM); against Staphylococcus aureus [14], 32 µg/mL (≈ 22.1 µM).
